Patent US20020141966A1, “Compositions for treatment of malignant effusions, and methods of making and using the same” (priority 2000, published 2002)

Assays:
[1] = test system: human colon carcinoma cell line HT29; assay: Survival study in HT29 colon cancer xenograft mouse model; type: in vivo, SCID mice; conditions: Paclitaxel 40 mg/kg, IP on day 4 post tumor cell implantation
Description: PACLIMER was provided as in powder and suspended in the vehicle (0.1% Tween80 in normal saline) just before administration. Paclitaxel was purchased from Bristol-Myers Squib Co., which was provided as a solution at a concentration of 6 mg/ml. The paclitaxel solution was diluted to 1 mg/ml with 0.9% sodium chloride just before use.
The human colon carcinoma cell line HT29 was used to set up the colon cancer xenograft mouse model. SCID mice were injected i.p. with 10 million cells. This generally results in death from the tumor metastasis and ascites around 30 days after tumor implantation. HT29 cells growing as a monolayer were harvested with trypsin and washed with PBS. The packed cells were resuspended in PBS (10 million cells per ml PBS). 48 SCID mice (C.B.17/Icr SCID, 8-10 weeks of age) were injected i.p. with 1 ml of the HT29 cell suspension (10 million cells for each mouse). 4 days after tumor implantation, the animals were grouped randomly. […]
For the ascites study, PACLIMER was to be given when obvious ascites was found in the mice. […] On 1, 5, and 10 days after treatment, 4 mice in each group was sacrificed at each time point and the ascites volumes were measured. […]

[2] = test system: malignant effusions associated with non-small cell lung cancer; conditions: cited from earlier work
[3] = single 125 mg/m2 dose diluted in saline, intracavitary

## CC(=O)O[C@H]1C(=O)[C@@]2(C)[C@H]([C@H](OC(=O)c3ccccc3)[C@]3(O)C[C@H](OC(=O)[C@H](O)[C@@H](NC(=O)c4ccccc4)c4ccccc4)C(C)=C1C3(C)C)[C@]1(OC(C)=O)CO[C@@H]1C[C@@H]2O [Paclitaxel, paclitaxel]
[1]
  Median Survival: 44 days
[2]; [3]
  complete response rate: 28.6%
  total response rate: 92.9%
[2]; single 125 mg/m2 dose, following the treatment
  patients with total tumor mass reduced by more than 50%: one patient out of fourteen
